From ChEMBL document CHEMBL4342418, “1,2,3-Triazole-containing hybrids as potential anticancer agents: Current developments, action mechanisms and structure-activity relationships” (Eur J Med Chem, 2019)
Values after ≈ are worked out from the molar mass of the structure shown. Values belong to the molecule of their own block, whether it stands above or below them.

What was measured:
MCF7 [1] = test: Antiproliferative activity against human MCF7 cells assessed as reduction in cell viability after 48 hrs by MTT assay; assay type: functional, cell-based; conditions: MCF7, 48 h
T47D [2] = test: Antiproliferative activity against human T47D cells assessed as reduction in cell viability after 48 hrs by MTT assay; assay type: functional, cell-based
HCT-116 [3] = test: Antiproliferative activity against human HCT116 cells assessed as reduction in cell viability after 48 hrs by MTT assay; assay type: functional, cell-based; conditions: HCT-116, 48 h
Caco-2 = test: Antiproliferative activity against human Caco2 cells assessed as reduction in cell viability after 48 hrs by MTT assay; assay type: functional, cell-based; conditions: Caco-2, 48 h
MCF7 [4] = test: cells; assay type: functional, cell-based; conditions: Homo sapiens
Description: Antiproliferative activity against human MCF7 cells by MTT assay

MDA-MB-231 [5] = test: Antiproliferative activity against human MDA-MB-231 cells by MTT assay; assay type: functional, cell-based
MCF-10A = test: Cytotoxicity against human MCF10A cells by MTT assay; assay type: cell-based
KG-1a = test: Antiproliferative activity against human KG1a cells assessed as reduction in cell viability after 72 hrs by MTT assay; assay type: functional, cell-based
SUM-159-PT = test: Antiproliferative activity against human SUM159 cells assessed as reduction in cell viability after 72 hrs by MTT assay; assay type: functional, cell-based
SK-BR-3 = test: Antiproliferative activity against human SKBR3 cells assessed as reduction in cell viability after 72 hrs by MTT assay; assay type: functional, cell-based; conditions: SK-BR-3, 72 h
HT-29 = test: Antiproliferative activity against human HT-29 cells assessed as reduction in cell viability after 48 hrs by MTT assay; assay type: functional, cell-based; conditions: HT-29, 48 h
DU-145 [6] = test: Antiproliferative activity against human DU145 cells assessed as reduction in cell viability after 48 hrs by MTT assay; assay type: functional, cell-based; conditions: DU-145, 48 h
A549 [7] = test: Antiproliferative activity against human A549 cells assessed as reduction in cell viability after 48 hrs by MTT assay; assay type: functional, cell-based; conditions: A549, 48 h
HeLa [8] = test: Antiproliferative activity against human HeLa cells assessed as reduction in cell viability after 48 hrs by MTT assay; assay type: functional, cell-based
MDA-MB-231 [9] = test: Antiproliferative activity against human MDA-MB-231 cells assessed as reduction in cell viability after 48 hrs by MTT assay; assay type: functional, cell-based; conditions: MDA-MB-231, 48 h
SW480 = test: Antiproliferative activity against human SW480 cells assessed as reduction in cell viability after 48 hrs by MTT assay; assay type: functional, cell-based; conditions: SW480, 48 h
[10] = Antiproliferative activity against human SMCC7721 cells assessed as reduction in cell viability after 48 hrs by MTT assay; assay type: functional, cell-based
HepG2 [11] = test: Antiproliferative activity against human HepG2 cells by SRB assay; assay type: functional, cell-based
DU-145 [12] = test: Antiproliferative activity against human DU145 cells by SRB assay; assay type: functional, cell-based
HeLa [13] = test: Antiproliferative activity against human HeLa cells by SRB assay; assay type: functional, cell-based
A549 [14] = test: Antiproliferative activity against human A549 cells by SRB assay; assay type: functional, cell-based
HCT-116 [15] = test: Antiproliferative activity against human HCT116 cells by MTT assay; assay type: functional, cell-based
HepG2 [16] = test: Antiproliferative activity against human HepG2 cells by MTT assay; assay type: functional, cell-based
SK-N-SH = test: Antiproliferative activity against human SK-N-SH cells by MTT assay; assay type: functional, cell-based
MGC-803 = test: Antiproliferative activity against human MGC803 cells by MTT assay; assay type: functional, cell-based
MDA-MB-231 [17] = test: Antiproliferative activity against human MDA-MB-231 cells by SRB assay; assay type: functional
MCF7 [18] = test: Antiproliferative activity against human MCF7 cells assessed as reduction in cell viability after 72 hrs by MTT assay; assay type: functional, cell-based; conditions: MCF7, 72 h
T47D [19] = test: Antiproliferative activity against human T47D cells assessed as reduction in cell viability after 72 hrs by MTT assay; assay type: functional, cell-based
C2C12 = test: Cytotoxicity against mouse C2C12 cells assessed as reduction in cell viability after 48 hrs by MTT assay; assay type: cell-based; conditions: C2C12, 48 h
KB = test: Antiproliferative activity against human KB cells by MTT assay; assay type: functional, cell-based
P388 = test: Antiproliferative activity against mouse P388 cells by MTT assay; assay type: functional, cell-based
HL-60 = test: Antiproliferative activity against human HL60 cells by MTT assay; assay type: functional, cell-based
Lu1 = test: Antiproliferative activity against human Lu1 cells by MTT assay; assay type: functional, cell-based

- IC50 (MCF7 [1]): 33 to 154 µM
- IC50 (T47D [2]): 33 to 154 µM
- IC50 (HCT-116 [3]): 33 to 154 µM
- IC50 (Caco-2): 33 to 154 µM
Compound: O=C(Cn1cc(C(O)c2ccccc2)nn1)N1CCN(c2nc3ccccc3s2)CC1 (centres undefined)

- IC50 (MCF7 [4]): 6.8 to 27.6 µM
- IC50 (MDA-MB-231 [5]): 6.8 to 27.6 µM
Compound: Cc1c(C(F)(F)F)cc(Cl)c(Cl)c1-n1nnc(-c2nn(-c3ccccc3)cc2C=O)c1C
- IC50 (MCF-10A): 21.9 to 25.3 µM

- IC50 (SK-BR-3): 2.06 to 7.47 µM
Compound: CN1CCN(Cc2cn(-c3ccc4ncnc(Nc5ccc(OCc6cccc(F)c6)c(Cl)c5)c4c3)nn2)CC1
- IC50 (KG-1a): 2.06 to 7.47 µM
- IC50 (SUM-159-PT): 2.06 to 7.47 µM

- IC50 (HT-29): 0.1 to 1.1 µM
- IC50 (DU-145 [6]): 0.1 to 1.1 µM
- IC50 (A549 [7]): 0.1 to 1.1 µM
Compound: O=C(c1cn(Cc2cccc(Oc3ccccc3)c2)nn1)c1cccnc1Nc1ccc(F)cc1

- IC50 (HeLa [8]): 4.8 to 9.21 µM
- IC50 (MCF7 [1]): 4.8 to 9.21 µM
- IC50 (MDA-MB-231 [9]): 4.8 to 9.21 µM
Compound: N#CC1=C(N)Oc2ccccc2C12C(=O)N(Cc1cn(CCCCBr)nn1)c1ccccc12 (centres undefined)

- IC50 (SW480): 0.49 to 6.7 µM
- IC50 (MCF7 [1]): 0.49 to 6.7 µM
- IC50 (A549 [7]): 0.49 to 6.7 µM
Compound: COc1cc([C@@H]2c3cc4c(cc3[C@H](n3cc(CO[C@@H]5O[C@H](COC(C)(C)C)[C@@H](OC(C)(C)C)[C@H](OC(C)(C)C)[C@H]5OC(C)(C)C)nn3)[C@H]3COC(=O)[C@H]23)OCO4)cc(OC)c1OC
- IC50 [10]: 0.49 to 6.7 µM

- GI50 (HepG2 [11]): 1.3 to 8.2 µM
- GI50 (DU-145 [12]): 1.3 to 8.2 µM
- GI50 (HeLa [13]): 1.3 to 8.2 µM
- GI50 (A549 [14]): 1.3 to 8.2 µM
Compound: COc1ccc(/C=C/C(=O)c2cc(OC)c(OC)c(OC)c2)cc1OCc1cn(Cc2ccc(N)cc2)nn1

- IC50 (HCT-116 [15]): > 100 µg/mL
- IC50 (HepG2 [16]): > 100 µg/mL
- IC50 (MCF7 [4]): 43.5 µg/mL
Compound: Cc1c(C2=NN(C(=S)NCc3ccccc3)C(c3ccccc3)C2)nnn1-c1ccc(-n2nnc(C3=NN(C(=S)NCc4ccccc4)C(c4ccccc4)C3)c2C)cc1 (centres undefined)

- IC50 (MCF7 [4]): 6.8 to 27.6 µM
- IC50 (MDA-MB-231 [5]): 6.8 to 27.6 µM
Compound: Cc1c(-n2nnc(-c3nn(-c4nncc5ccccc45)cc3C=O)c2C)cccc1C(F)(F)F
- IC50 (MCF-10A): 21.9 to 25.3 µM

- IC50 (HepG2 [16]): 1.52 to 10.4 µM
- IC50 (SK-N-SH): 1.52 to 10.4 µM
- IC50 (MGC-803): 1.52 to 10.4 µM
Compound: COc1cc(/C=C/C(=O)c2ccc(OCCCn3cc(CSc4nncs4)nn3)cc2)cc(OC)c1OC

Compound: O=c1oc(-c2ccccc2)nn1Cc1cn(Cc2ccccc2)nn1
- GI50 (MDA-MB-231 [17]): 0.82 to 2.39 µM
- GI50 (HepG2 [11]): 0.82 to 2.39 µM
- GI50 (DU-145 [12]): 0.82 to 2.39 µM
- GI50 (HeLa [13]): 0.82 to 2.39 µM

- GI50 (MCF7 [18]): 27.7 to 85.7 µg/mL (≈ 73.4 to 227 µM)
- GI50 (T47D [19]): 27.7 to 85.7 µg/mL (≈ 73.4 to 227 µM)
Compound: O=C(NCc1cn(Cc2ccc(F)cc2)nn1)c1cc(-c2ccccc2)on1

- IC50 (SK-BR-3): 2.06 to 7.47 µM
Compound: CCCN1CCC(NCc2cn(-c3ccc4ncnc(Nc5ccc(OCc6cccc(F)c6)c(Cl)c5)c4c3)nn2)CC1
- IC50 (KG-1a): 2.06 to 7.47 µM
- IC50 (SUM-159-PT): 2.06 to 7.47 µM

- IC50 (HepG2 [16]): 1.52 to 10.4 µM
- IC50 (SK-N-SH): 1.52 to 10.4 µM
- IC50 (MGC-803): 1.52 to 10.4 µM
Compound: COc1cc(/C=C/C(=O)c2ccc(OCCCn3cc(CSc4nnnn4C)nn3)cc2)cc(OC)c1OC

- IC50 (MCF7 [1]): 7.1 to 13.4 µM
- IC50 (HCT-116 [3]): 7.1 to 13.4 µM
Compound: O=C(Nc1ccc(-n2cc(Oc3ccc(-c4cc(-c5ccc(Oc6cn(-c7ccc(NC(=O)[C@@H]8CCCN8)cc7)nn6)cc5)cc(-c5ccc(Oc6cn(-c7ccc(NC(=O)[C@@H]8CCCN8)cc7)nn6)cc5)c4)cc3)nn2)cc1)[C@@H]1CCCN1
- IC50 (C2C12): > 40 µM

- IC50 (HepG2 [16]): 0.76 µM
- IC50 (KB): 0.79 µM
Compound: O=C(NCc1cn(CC(O)Cn2c3c(c4ccccc4c2=O)C(=O)c2ccccc2-3)nn1)c1ccc(Br)cc1 (centres undefined)

Compound: Cc1c2ccncc2c(C)c2c1[nH]c1ccccc12 [ELLIPTECINE]
- IC50 (HepG2 [16]): 0.93 to 1.46 µM
- IC50 (MCF7 [4]): 1.7 to 3.5 µM
- IC50 (P388): 1.7 to 3.5 µM
- IC50 (HL-60): 1.7 to 3.5 µM
- IC50 (KB): 0.81 to 1.26 µM
- IC50 (Lu1): 1.7 to 3.5 µM

Compound: Cc1ccc(-c2nn(Cc3cn(Cc4ccccc4)nn3)c(=O)o2)cc1
- GI50 (MDA-MB-231 [17]): 0.82 to 2.39 µM
- GI50 (HepG2 [11]): 0.82 to 2.39 µM
- GI50 (DU-145 [12]): 0.82 to 2.39 µM
- GI50 (HeLa [13]): 0.82 to 2.39 µM

- IC50 (MCF7 [1]): 33 to 154 µM
- IC50 (T47D [2]): 33 to 154 µM
- IC50 (HCT-116 [3]): 33 to 154 µM
- IC50 (Caco-2): 33 to 154 µM
Compound: O=C(Cn1cc(CO)nn1)N1CCN(c2nc3ccccc3s2)CC1
